According to patent publication US20260347399A1, “BRAIN PENETRATING PEPTIDES AND METHODS OF USE” (priority 2022, published 2026):
“Also recorded” adds a separate entry of the source. Like-named read-outs stand apart in the source and are kept apart here. Peptide text beside a SMILES is read from it. * marks the point of attachment. 5FAM = O=C1OC2(c3ccc(O)cc3Oc3cc(O)ccc32)c2ccc(C(=O)*)cc21; FAM = 5(6)-carboxyfluorescein; Ahx = NCCCCCC(=O)O

Experiments:
[1] = system: GBM and normal brain parenchyma; assay: Synthetic peptide homing in glioma-bearing mice (IHC); format: in vivo, mouse; settings: synthetic peptide i.v., 1 h; WT-GBM and VEGFko GBM-bearing mice
Protocol: CVGTNCY (SEQ ID NO:2) peptide-phage or control phage were injected iv into mice, after one hour circulation animals were perfused with 20 ml PBS, organs were collected, weighed, and dropped to 1% NP40-LB solution. Organs were homogenized and titer of each tissue was determined. FAM-labeled peptides (2 mM of peptide in PBS) were injected intravenously and 3 hours later the animals were perfused with 20 mL of PBS. The organs were excised, snap-frozen in the vapor of liquid nitrogen, and stored at −80 °C. For confocal microscopy, the tissues were sectioned at 15 μm and stained with antibodies and DAPI.
Cryosections (15 μm) on Superfrost Plus slides were fixed in cold methanol, washed in PBS, treated with 3% hydrogen peroxide, and blocked in PBS containing 0.05% Tween-20, 5% BSA, and 5% goat serum (GE Healthcare, UK) for 1 h. The sections were immunostained with rabbit anti-fluorescein (cat #A889, Thermo Fisher Scientific, MA, USA) antibody overnight at +4 °C. […] Sections were imaged with Leica Aperio VERSA microscope slide scanner. Imaged were processed with Aperio Image Scope (v12.4.3.5008).
The synthetic CVGTNCY (SEQ ID NO:2) peptide or scrambled CVGTNCY (SEQ ID NO:2) homing in WT-GBM and VEGFko GBM-bearing mice was analyzed after i.v. injection and perfusion of the animals. Cryosections of glioma-bearing brains were stained with anti-FAM antibody and tyramide amplification kit to enhance the signal of the peptide.
To assess homing of CVG peptide in glioblastoma, CVGTNCY (SEQ ID NO:2) peptide-phage was injected iv into mice bearing either WT-GBM, VEGFko, U87MG or NCH421k GBM, and to mice without a tumor. At one hour time point mice were perfused, brains and control organs collected and titered. […] (FIGS. 17A-17B) Distribution of CVG peptide in GBM and brain parenchyma was also assessed. CVGTNCY (SEQ ID NO:2) peptide or its scrambled version (CVYTCNG; (SEQ ID NO: 68)) was injected iv into glioma bearing mice, after 1 hour circulation mice were perfused and tissues of interest snap-frozen in liquid nitrogen.

human LRP1 = human LRP1 (Homo sapiens, UniProt Q07954); assay: Surface plasmon resonance analysis; format: binding; settings: SPR
Protocol: Whether Cerepep (SRRVISRAKLAAAL (SEQ ID NO:9)) binds to human LRP1 purified from placenta was tested using surface plasmon resonance analysis. […] Furthermore, binding of CP-neutravidin complex to LRP1 is inhibited by RAP and EDTA, as can be expected with LRP1 ligands.
To determine which amino acid positions are important for brain homing of SERVISRAKLAAAL (SEQ ID NO:9), a pool of peptide-phage clones was compiled, where every amino acid position was one-by-one changed to alanine (alanines were changed to leucines). The peptide-phages were mixed in equimolar ratio, the Cerepep phage was included as a positive control and insertless as a negative control. The phage mix was injected into mice and following a 1 h circulation the amount of different phage clones in the brain was determined using HTS. […] Surface plasmon resonance analysis with human LRP-1 immobilized on a BIAcore sensor chip was used to assess whether CP-neutravidin complex directly interacts with human LRP-1. Angiopep-2-neutravidin complex was used as a positive control (FIGS. 7A-7B).

Neuro2A cells [2] = assay: Effect of endocytic inhibitors on CP-AgNP uptake (flow cytometry); format: cell-based, mouse; settings: inhibitor 30 min at 37 °C: nystatin 50 μM, cytochalasin D 4 μM, chlorpromazine 30 μM
Protocol: […] The CP-AgNPs or control biotin-AgNPs were then added, and the cells were incubated at 37 °C for 1h, treated with an etching solution to remove accessible surface-bound AgNPs and subsequently washed with DPBS. The fluorescence of the labeled AgNPs was detected using the BD Accuri flow cytometer by monitoring the 555 nm channel FL2 and analyzed using FCS Express 7 software.
To study how treatment with endocytic inhibitors (nystatin, EIPA, cytochalasin D and chlorpromazine) affects the uptake of CP-AgNPs in Neuro2A cells, flow cytometry was used. Nystatin was used to block caveolae/lipid-mediated endocytosis, EIPA to block micropinocytosis, cytochalasin D to block actin polymerization and micropinocytosis and chlorpromazine to block clathrin-mediated endocytosis.

[3] = system: Huntington's disease subjects; settings: human, in vivo; cited from earlier work
ADHD / ASD subjects = settings: cited from earlier work
ALS subjects = settings: human, in vivo, cited from earlier work
mouse brain = assay: In vivo phage display with CX4CYX library; settings: for R1 reads: round 1; for R3 reads: round 3; for R3 > R1 (ratio of sequencing reads between round 3 and round 1): round 3 / round 1
Protocol: In vivo phage display with CX4CYX library was performed in three selection rounds. Phage library was injected intravenously to Balb/c mice and allowed to circulate for one hour. After circulation, the animals were anesthetized and perfused intracardially with acid and detergent buffers. Brain and control organs were collected and homogenized in 1% NP40-LB. Bound phages were rescued by amplification in E. coli and their genomic DNA was sequenced by Ion Torrent next generation DNA sequencing system.
A novel phage library CX4CYX was constructed based on the alanine-leucine screen to find new brain homing peptides). This knowledge directed us to construct a novel phage library CX4CYX (X—any amino acid), where Cys1, Cys6 and Tyr7 remained in their intact positions, and the four amino acid variable-domain laid between the cysteines, and one amino acid variability after Tyr7. Three rounds of phage bio-panning was performed to allow enrichment of peptides in the brain. Again acid and detergent buffers were used for perfusion to remove non-specifically bound phages from the brain after systemic administration of phage library (round 1) and recovered brain phage pools (round 2 and 3). HTS reads from round 1 to round 3 indicated decent enrichment of in-frame peptides in the brain (Table 6).

Neuro2A cells [4] = assay: In vitro FAM-peptide binding and uptake; format: cell-based, mouse; settings: 30 μM, 1 h, 4 °C (binding) or 37 °C (uptake)
Protocol: To assess the binding and uptake of Cerepep peptide, Neuro2A were cultured in 24-well plates on polylysine coated glass coverslips until 80-90% confluency. FAM-Cerepep (FAM-Ahx-SRRVISRAKLAAAL-OH (SEQ ID NO:9)) or control FAM-RPAR (FAM-RPARPAR-OH (SEQ ID NO:74)) peptide with the final concentration of 30 µM was added to Neuro2A cells in growth media and incubated at 4 °C (to study the binding) or 37 °C (to study the uptake) for 1 h. The cells were washed 4 times with growth media and fixed in methanol. The samples were stained with anti-fluorescein antibody to enhance the FAM signal. The fixed cells were first blocked with PBST (PBS+0.05% Tween 20), 5% BSA, 5% goat serum at RT for 30 min, followed by incubation with rabbit anti-fluorescein IgG (cat. no. A889, Thermo Fisher Scientific, MA, USA) at 4 °C for O/N and Alexa 647 goat anti-rabbit IgG secondary antibody at RT for 1h. Nuclei were counterstained with DAPI at 1 μg/ml. The coverslips were mounted on glass slides with Fluoromount-G (Electron Microscopy Sciences, PA, USA), imaged using confocal microscopy (Olympus FV1200MPE, Tokyo, Japan) and analyzed using the FV10-ASW4.2 software.
The binding (at 4 °C) and uptake (at 37 °C) of synthetic FAM-Cerepep by Neuro2A cells was also studied, comparing it to a control FAM-RPAR peptide which has a similar charge.

P3 human stem cells = assay: Inhibition of AgNP-Cerepep binding (FACS); format: cell-based; settings: 4 °C, 1 h
Protocol: Briefly, P3 human stem cells were incubated with the indicated antibody (AB) or RAP (diluted in 20% of glycerol) at 4 °C for 1 h, after cells were exposed to AgNP-control or AgNP-Cerepep for 1 h at 4 °C, then the cells were analyzed by FACS.

Sequence of human LRP1 (Q07954 20-4544): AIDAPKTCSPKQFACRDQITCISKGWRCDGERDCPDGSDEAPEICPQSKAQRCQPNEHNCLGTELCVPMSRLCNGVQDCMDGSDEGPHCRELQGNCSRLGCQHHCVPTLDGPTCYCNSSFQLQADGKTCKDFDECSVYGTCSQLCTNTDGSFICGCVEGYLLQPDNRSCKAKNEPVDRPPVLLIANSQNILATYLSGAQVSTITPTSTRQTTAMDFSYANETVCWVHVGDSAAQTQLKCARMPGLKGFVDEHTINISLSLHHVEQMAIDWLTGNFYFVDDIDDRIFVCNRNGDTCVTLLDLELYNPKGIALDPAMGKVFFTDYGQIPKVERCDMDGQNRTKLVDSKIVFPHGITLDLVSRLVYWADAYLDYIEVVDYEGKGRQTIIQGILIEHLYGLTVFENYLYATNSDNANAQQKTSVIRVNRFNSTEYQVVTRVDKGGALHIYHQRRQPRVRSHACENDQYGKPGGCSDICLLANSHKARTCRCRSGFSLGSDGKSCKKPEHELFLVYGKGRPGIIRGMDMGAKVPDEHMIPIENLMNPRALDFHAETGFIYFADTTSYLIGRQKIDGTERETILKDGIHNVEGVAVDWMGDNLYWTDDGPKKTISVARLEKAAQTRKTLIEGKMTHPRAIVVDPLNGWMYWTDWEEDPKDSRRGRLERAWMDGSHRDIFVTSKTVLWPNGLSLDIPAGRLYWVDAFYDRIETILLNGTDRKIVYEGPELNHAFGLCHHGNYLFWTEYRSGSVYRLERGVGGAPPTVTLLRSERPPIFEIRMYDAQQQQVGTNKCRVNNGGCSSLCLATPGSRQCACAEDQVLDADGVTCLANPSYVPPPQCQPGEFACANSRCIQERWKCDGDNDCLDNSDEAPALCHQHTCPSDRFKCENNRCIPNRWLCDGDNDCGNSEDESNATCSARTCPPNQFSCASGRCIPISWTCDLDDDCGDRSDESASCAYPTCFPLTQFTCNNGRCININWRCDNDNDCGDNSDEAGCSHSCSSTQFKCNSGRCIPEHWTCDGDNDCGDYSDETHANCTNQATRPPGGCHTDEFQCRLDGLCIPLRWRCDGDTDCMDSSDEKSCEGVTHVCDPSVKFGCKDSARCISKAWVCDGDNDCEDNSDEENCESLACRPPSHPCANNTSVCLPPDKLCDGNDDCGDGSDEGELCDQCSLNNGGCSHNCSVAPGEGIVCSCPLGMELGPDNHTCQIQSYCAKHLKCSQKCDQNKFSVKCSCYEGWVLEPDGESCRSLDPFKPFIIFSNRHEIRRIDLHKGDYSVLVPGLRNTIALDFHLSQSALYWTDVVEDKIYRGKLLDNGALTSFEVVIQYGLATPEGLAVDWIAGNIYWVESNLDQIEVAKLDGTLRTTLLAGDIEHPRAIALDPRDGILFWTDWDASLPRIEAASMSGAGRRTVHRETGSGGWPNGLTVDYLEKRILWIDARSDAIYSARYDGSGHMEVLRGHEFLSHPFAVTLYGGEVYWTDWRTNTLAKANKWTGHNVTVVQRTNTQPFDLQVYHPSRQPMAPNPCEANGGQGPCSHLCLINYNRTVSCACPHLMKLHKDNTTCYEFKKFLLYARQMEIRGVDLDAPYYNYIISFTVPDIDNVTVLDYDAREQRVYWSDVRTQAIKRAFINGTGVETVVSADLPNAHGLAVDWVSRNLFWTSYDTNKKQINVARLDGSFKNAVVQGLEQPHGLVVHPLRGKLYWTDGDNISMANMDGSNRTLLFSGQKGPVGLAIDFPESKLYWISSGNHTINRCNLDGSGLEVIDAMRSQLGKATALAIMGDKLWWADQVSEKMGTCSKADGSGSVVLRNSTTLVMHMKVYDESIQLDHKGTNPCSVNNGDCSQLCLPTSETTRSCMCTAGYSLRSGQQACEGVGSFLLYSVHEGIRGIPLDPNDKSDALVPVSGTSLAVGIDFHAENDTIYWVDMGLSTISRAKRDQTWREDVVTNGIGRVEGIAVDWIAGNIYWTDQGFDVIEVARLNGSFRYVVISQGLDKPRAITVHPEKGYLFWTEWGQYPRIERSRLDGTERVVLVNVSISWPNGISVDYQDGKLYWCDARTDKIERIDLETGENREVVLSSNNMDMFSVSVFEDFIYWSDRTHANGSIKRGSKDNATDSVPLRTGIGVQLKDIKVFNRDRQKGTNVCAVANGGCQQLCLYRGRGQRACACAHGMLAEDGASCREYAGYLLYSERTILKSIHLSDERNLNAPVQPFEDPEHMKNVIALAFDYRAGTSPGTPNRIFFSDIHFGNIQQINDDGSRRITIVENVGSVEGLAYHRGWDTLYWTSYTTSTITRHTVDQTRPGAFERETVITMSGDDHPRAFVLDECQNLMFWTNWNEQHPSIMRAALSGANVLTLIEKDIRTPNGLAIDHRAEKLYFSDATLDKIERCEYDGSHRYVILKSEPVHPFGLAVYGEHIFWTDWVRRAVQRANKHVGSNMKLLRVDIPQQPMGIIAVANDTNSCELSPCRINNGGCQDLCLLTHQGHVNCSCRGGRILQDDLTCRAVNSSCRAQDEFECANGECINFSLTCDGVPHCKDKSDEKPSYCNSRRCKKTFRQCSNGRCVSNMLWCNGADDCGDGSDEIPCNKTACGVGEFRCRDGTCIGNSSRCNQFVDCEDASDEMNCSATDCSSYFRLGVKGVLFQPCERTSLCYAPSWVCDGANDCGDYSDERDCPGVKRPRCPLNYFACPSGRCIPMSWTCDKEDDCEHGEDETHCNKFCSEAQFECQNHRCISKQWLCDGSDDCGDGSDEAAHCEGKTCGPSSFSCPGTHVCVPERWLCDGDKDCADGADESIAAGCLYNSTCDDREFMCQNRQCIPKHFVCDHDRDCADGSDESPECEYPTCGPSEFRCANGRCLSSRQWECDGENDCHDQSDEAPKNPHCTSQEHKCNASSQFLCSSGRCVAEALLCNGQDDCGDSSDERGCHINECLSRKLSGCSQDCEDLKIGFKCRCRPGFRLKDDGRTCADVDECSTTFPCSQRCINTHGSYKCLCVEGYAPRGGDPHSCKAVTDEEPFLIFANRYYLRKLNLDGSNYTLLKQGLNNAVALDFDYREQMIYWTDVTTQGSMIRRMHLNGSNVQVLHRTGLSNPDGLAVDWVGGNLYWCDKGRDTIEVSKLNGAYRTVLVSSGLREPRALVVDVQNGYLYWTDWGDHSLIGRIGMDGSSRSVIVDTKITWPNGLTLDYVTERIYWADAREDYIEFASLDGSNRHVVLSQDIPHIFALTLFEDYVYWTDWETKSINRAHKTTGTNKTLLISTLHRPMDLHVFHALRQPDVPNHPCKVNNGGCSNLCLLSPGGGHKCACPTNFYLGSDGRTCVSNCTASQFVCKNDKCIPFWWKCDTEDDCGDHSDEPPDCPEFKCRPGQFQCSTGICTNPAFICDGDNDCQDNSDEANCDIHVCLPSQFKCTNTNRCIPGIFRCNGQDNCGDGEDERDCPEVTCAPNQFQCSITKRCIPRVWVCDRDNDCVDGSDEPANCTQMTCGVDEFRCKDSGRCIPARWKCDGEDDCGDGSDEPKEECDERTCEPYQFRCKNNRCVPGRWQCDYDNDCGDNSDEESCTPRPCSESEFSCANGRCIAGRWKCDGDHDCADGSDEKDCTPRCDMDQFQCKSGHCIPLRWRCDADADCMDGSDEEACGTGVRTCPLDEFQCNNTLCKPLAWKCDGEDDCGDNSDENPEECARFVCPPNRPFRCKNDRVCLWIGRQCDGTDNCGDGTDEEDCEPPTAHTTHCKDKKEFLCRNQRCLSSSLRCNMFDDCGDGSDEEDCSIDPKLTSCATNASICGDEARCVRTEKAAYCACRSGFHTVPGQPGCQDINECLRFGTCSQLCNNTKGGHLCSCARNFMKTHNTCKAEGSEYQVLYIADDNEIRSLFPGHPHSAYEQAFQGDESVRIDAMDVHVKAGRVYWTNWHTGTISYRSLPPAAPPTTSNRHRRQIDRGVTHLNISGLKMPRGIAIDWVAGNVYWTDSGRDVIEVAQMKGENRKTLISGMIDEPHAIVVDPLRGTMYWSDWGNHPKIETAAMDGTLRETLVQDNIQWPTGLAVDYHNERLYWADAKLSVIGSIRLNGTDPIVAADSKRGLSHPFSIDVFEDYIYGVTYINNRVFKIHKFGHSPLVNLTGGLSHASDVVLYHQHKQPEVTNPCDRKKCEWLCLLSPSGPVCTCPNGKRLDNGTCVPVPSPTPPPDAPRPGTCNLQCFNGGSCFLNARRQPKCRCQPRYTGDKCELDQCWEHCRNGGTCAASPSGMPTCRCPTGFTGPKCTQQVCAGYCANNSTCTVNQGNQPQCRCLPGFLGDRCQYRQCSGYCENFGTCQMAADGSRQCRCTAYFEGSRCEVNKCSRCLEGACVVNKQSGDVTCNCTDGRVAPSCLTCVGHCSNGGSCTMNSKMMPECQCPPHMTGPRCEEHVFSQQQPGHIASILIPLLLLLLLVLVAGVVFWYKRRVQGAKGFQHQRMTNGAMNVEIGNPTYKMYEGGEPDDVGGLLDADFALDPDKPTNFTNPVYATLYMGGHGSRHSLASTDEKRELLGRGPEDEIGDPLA

Molecule: CC(C)[C@H](NC(=O)[C@H](CS)NC(=O)CCCCCNC(=O)c1ccc2c(c1)C(=O)OC21c2ccc(O)cc2Oc2cc(O)ccc21)C(=O)N[C@@H](Cc1ccc(O)cc1)C(=O)N[C@H](C(=O)N[C@@H](CS)C(=O)N[C@@H](CC(N)=O)C(=O)NCC(=O)O)[C@@H](C)O [CVYTCNG, reference compound] ({5FAM-Ahx}-CVYTCNG-OH)
- detection in brain parenchyma [1]: not detectable in the brain parenchyma; also recorded: no targeting to brain parenchyma
- detection/targeting in GBM [1]: binding was detected in the GBM

Molecule: O=C(O)CN(CCN(CC(=O)O)CC(=O)O)CC(=O)O [EDTA]
- inhibition of CP-neutravidin binding to LRP1 (human LRP1): inhibited

Molecule: CC1C=CC=CCCC=CC=CC=CC=CC(OC2OC(C)C(O)C(N)C2O)CC2OC(O)(CC(O)C(O)CCC(O)CC(O)CC(O)CC(=O)OC(C)C(C)C1O)CC(O)C2C(=O)O (stereo not shown) [Nystatin]
- inhibitory effect on the uptake of CP-AgNPs (Neuro2A cells [2]): did not have a statistically significant inhibitory effect

Molecule: NC12CC3CC(CC(C3)C1)C2 [amantadine]
- results in Huntington's disease [3]: preliminary positive results

Molecule: COC(=O)C(c1ccccc1)C1CCCCN1 (stereo not shown) [methylphenidate]
- treatment of ADHD (ADHD / ASD subjects; ADHD): safe and effective
- treatment of hyperactivity in children with ASD (ADHD / ASD subjects; children with ASD): effectively treat hyperactivity in children with ASD

Molecule: CC(Cc1ccccc1)(NC(=O)CN)c1ccccc1 (stereo not shown) [remacemide]
- results in Huntington's disease [3]: preliminary positive results

Molecule: Nc1nc2ccc(OC(F)(F)F)cc2s1 [riluzole, 2-amino-6-(trifluoromethoxy)benzothiazole]
- survival time in subjects with ALS (ALS subjects): borderline significance with respect to survival time
- survival time in subjects with ALS (ALS subjects; listed as Riluzole): improved survival time in subjects with ALS

Molecule: CACPLCY [CAGPLCY]
- R1 reads (mouse brain): 3 reads
- R3 reads (mouse brain): 1232 reads
- R3 > R1 (ratio of sequencing reads between round 3 and round 1) (mouse brain): 411

Molecule: CAGSMCY
- R1 reads (mouse brain): 14 reads
- R3 reads (mouse brain): 9077 reads
- R3 > R1 (ratio of sequencing reads between round 3 and round 1) (mouse brain): 648

Molecule: CEGALCY
- R1 reads (mouse brain): 17 reads
- R3 reads (mouse brain): 39863 reads
- R3 > R1 (ratio of sequencing reads between round 3 and round 1) (mouse brain): 2345

Molecule: CEGSLCY
- R1 reads (mouse brain): 3 reads
- R3 reads (mouse brain): 2833 reads
- R3 > R1 (ratio of sequencing reads between round 3 and round 1) (mouse brain): 944

Molecule: CKGSNCY
- R1 reads (mouse brain): 4 reads
- R3 reads (mouse brain): 2037 reads
- R3 > R1 (ratio of sequencing reads between round 3 and round 1) (mouse brain): 509

Molecule: CMGDLCY
- R1 reads (mouse brain): 3 reads
- R3 reads (mouse brain): 837 reads
- R3 > R1 (ratio of sequencing reads between round 3 and round 1) (mouse brain): 279

Molecule: CQGALCY
- R1 reads (mouse brain): 27 reads
- R3 reads (mouse brain): 8612 reads
- R3 > R1 (ratio of sequencing reads between round 3 and round 1) (mouse brain): 319

Molecule: CQGSNCY
- R1 reads (mouse brain): 4 reads
- R3 reads (mouse brain): 1202 reads
- R3 > R1 (ratio of sequencing reads between round 3 and round 1) (mouse brain): 301

Molecule: CTGSLCY
- R1 reads (mouse brain): 64 reads
- R3 reads (mouse brain): 43464 reads
- R3 > R1 (ratio of sequencing reads between round 3 and round 1) (mouse brain): 679

Molecule: CTGSMCY
- R1 reads (mouse brain): 3 reads
- R3 reads (mouse brain): 841 reads
- R3 > R1 (ratio of sequencing reads between round 3 and round 1) (mouse brain): 280

Molecule: CVCANCY [CVGANCY]
- R1 reads (mouse brain): 24 reads
- R3 reads (mouse brain): 7359 reads
- R3 > R1 (ratio of sequencing reads between round 3 and round 1) (mouse brain): 307

Molecule: CVGQLCY
- R1 reads (mouse brain): 12 reads
- R3 reads (mouse brain): 5355 reads
- R3 > R1 (ratio of sequencing reads between round 3 and round 1) (mouse brain): 446

Molecule: CVGTLCY
- R1 reads (mouse brain): 21 reads
- R3 reads (mouse brain): 11631 reads
- R3 > R1 (ratio of sequencing reads between round 3 and round 1) (mouse brain): 554

Molecule: FAM-RPARPAR-OH ({FAM}-RPARPAR-OH) [reference compound]
- binding and uptake of FAM-peptide (Neuro2A cells [4]): only background binding

Molecule: RAP: Receptor Associated Protein, inhibitor of several LDL-receptor proteins
- inhibition of CP-neutravidin binding to LRP1 (human LRP1): inhibited
- effect on AgNP-Cerepep binding to P3 cells (P3 human stem cells): reduced
